Data from patent US20140288044A1, “COMPOSITIONS AND THERAPEUTIC USES OF IKK-RELATED KINASE EPSILON AND TANKBINDING KINASE 1 INHIBITORS” (Alzheimer's Institute of America, Inc., priority 2011, published 2014).

target: T1, IKKε (Homo sapiens, UniProt Q14164); test: In-vitro IKKε kinase assay (radiolabelled ATP, filterplate); assay type: biochemical; conditions: "sensitized" assay; read-out: IC50, inhibition of the kinase activity of IKKε
T1 construct: His-tag (in-house Sf9 preparation) or GST-tag (purchased Invitrogen preparation); these are alternatives, not both on one protein; host or cells: Sf9 cells
T1 sequence (Q14164 1-716): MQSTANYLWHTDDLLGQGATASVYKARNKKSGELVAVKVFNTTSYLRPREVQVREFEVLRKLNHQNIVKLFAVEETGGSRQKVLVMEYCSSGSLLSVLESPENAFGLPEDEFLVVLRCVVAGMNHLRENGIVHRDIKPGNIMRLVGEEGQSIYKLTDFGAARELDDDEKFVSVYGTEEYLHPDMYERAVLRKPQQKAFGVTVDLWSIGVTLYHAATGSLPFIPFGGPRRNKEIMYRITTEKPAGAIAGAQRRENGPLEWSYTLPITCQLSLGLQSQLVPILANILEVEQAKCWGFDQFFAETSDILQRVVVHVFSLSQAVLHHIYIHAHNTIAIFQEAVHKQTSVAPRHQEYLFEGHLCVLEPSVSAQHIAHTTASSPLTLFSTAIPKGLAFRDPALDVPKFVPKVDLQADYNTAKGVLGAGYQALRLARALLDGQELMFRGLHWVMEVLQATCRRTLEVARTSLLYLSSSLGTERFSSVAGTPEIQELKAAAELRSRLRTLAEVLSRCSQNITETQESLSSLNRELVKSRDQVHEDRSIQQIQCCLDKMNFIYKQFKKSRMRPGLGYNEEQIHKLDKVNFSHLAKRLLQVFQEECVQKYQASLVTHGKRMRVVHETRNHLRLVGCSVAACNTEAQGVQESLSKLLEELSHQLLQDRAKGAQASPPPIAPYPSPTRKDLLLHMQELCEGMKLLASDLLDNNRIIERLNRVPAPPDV
Summary of the method: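 His-tagged IKKε from Sf9 cells or GST-tagged IKKε, with myelin basic protein, casein or dephosphorylated casein as substrate and 32 μM ATP (2× Km) plus [γ^33]ATP. "Normal" assay used 0.1 μg/ml enzyme; "sensitized" used 0.015 μg/ml with dephosphorylated casein only. Stopped after 30–45 min with phosphoric acid; P-81 filter counts normalized to DMSO after background subtraction.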

Compound	IC50 [nM]
N#Cc1cc(-c2ccnc(Nc3ccc(C4CC4)nc3)n2)ccc1OC1CCOCC1 [Example Compound 4, 5-{2-[(6-Cyclopropylpyridin-3-yl)amino]pyrimidin-4-yl}-2-(tetrahydro-2H-pyran-4-yloxy)benzonitrile]	< 5
N#Cc1cc(-c2ccnc(Nc3ccc(N4CCCC4)nc3)n2)ccc1OC1CCOCC1 [Example Compound 5, 5-(2-{[6-(Pyrrolidin-1-yl)pyridin-3-yl]amino}pyrimidin-4-yl)-2-(tetrahydro-2H-pyran-4-yloxy)benzonitrile]	< 5

same assay, conditions: in-vitro IKKε kinase inhibition assays; given as 0.005 μM (5 nM); read-out: IKKε kinase inhibitory activity (IC50 value)

IC50 [nM]	Compound
< 5	N#Cc1cc(-c2ccnc(Nc3ccc(C4CC4)nc3)n2)ccc1OC1CCOCC1 [Example Compound 4, 5-{2-[(6-Cyclopropylpyridin-3-yl)amino]pyrimidin-4-yl}-2-(tetrahydro-2H-pyran-4-yloxy)benzonitrile]
< 5	N#Cc1cc(-c2ccnc(Nc3ccc(N4CCCC4)nc3)n2)ccc1OC1CCOCC1 [Example Compound 5, 5-(2-{[6-(Pyrrolidin-1-yl)pyridin-3-yl]amino}pyrimidin-4-yl)-2-(tetrahydro-2H-pyran-4-yloxy)benzonitrile]

tested on: IKKε-mediated phosphorylation of IRF3; test: ELISA for in-situ phosphorylation of IRF3 (phospho-Ser396) in HEK293T cells cotransfected with IRF3 and IKKε; assay type: cell-based; conditions: Homo sapiens, HEK-293T, 20 h, HEK293T cells, 20 hours; range given from about 1 μM to about 250 nM; read-out: IC50, in-situ IKKε-mediated phosphorylation of IRF3
Protocol: HEK293T cells were cotransfected in a 10-cm dish with IRF3 and IKKε expression plasmids using Lipofectamine 2000 (Invitrogen, Carlsbad, Calif.). The following day, cells were replated at 20,000 per well in 96-well plates and treated with test compounds (compounds according to Formulae I and/or II) for 20 hours. Cell lysates were prepared and analyzed using an ELISA for phospho-Ser396 (anti-IRF3 capture antibody, Santa Cruz Biotechnology, Inc., Santa Cruz, Calif.; anti-p-Ser396 IRF3 detection antibody, Cell Signaling, Danvers, Mass.). pIRF3 levels in compound treated cells were normalized to DMSO treated cells (no compound). Cell viability was assayed in a parallel set of plates to monitor cytotoxic effects of the test compounds (CellTiter-Glo, Promega, Inc., Madison, Wis.). TBK1 activity was tested by Western blotting using a phospho-specific IRF7 antibody. Similar to above, HEK293T cells were transfected with IRF7 and TBK1 expression plasmids. Cells were seeded in 12-well plates at 150,000 per well and treated overnight with test compounds. Protein lysates were prepared and processed for Western blotting followed by detection using a phosphor-Ser477/Ser479 IRF7 antibody (BD Biosciences, San Jose, Calif.)

IC50 [nM]	Compound
250 to 1000	COC1CN(C(=O)c2cncc(Nc3nccc(-c4ccc(OC5CCOCC5)c(C#N)c4)n3)c2)C1 [Example Compound 171, 5-[2-({5-[(3-Methoxyazetidin-1-yl)carbonyl]pyridin-3-yl}amino)pyrimidin-4-yl]-2-(tetrahydro-2H-pyran-4-yloxy)benzonitrile]
250 to 1000	N#Cc1cc(-c2ccnc(Nc3ccnc(N4CCC[C@H]4CO)c3)n2)ccc1OC1CCOCC1 [Example Compound 180, 5-[2-({2-[(2S)-2-(Hydroxymethyl)pyrrolidin-1-yl]pyridin-4-yl}amino)pyrimidin-4-yl]-2-(tetrahydro-2H-pyran-4-yloxy)benzonitrile]
250 to 1000	CN(C)c1ccc(Nc2nccc(-c3ccc(OC4CCN(C(=O)CO)C4)c(C#N)c3)n2)cn1 (stereo not drawn) [Example Compound 192, 5-(2-{[6-(Dimethylamino)pyridin-3-yl]amino}pyrimidin-4-yl)-2-{[1-(hydroxyacetyl)pyrrolidin-3-yl]oxy}benzonitrile]
250 to 1000	CNCc1cncc(Nc2nccc(-c3ccc(OC4CCOCC4)c(C#N)c3)n2)c1 [Example Compound 203, 5-[2-({5-[(Methylamino)methyl]pyridin-3-yl}amino)pyrimidin-4-yl]-2-(tetrahydro-2H-pyran-4-yloxy)benzonitrile]
250 to 1000	COCCNc1cc(Nc2nccc(-c3ccc(NC(=O)C4CC4)c(C#N)c3)n2)ccn1 [Example Compound 242, N-{2-Cyano-4-[2-({2-[(2-methoxyethyl)amino]pyridin-4-yl}amino)pyrimidin-4-yl]phenyl}cyclopropanecarboxamide]
250 to 1000	COC1CN(c2cc(Nc3nccc(-c4ccc(NC(=O)C(C)C)c(C#N)c4)n3)ccn2)C1 [Example Compound 247, N-[2-Cyano-4-(2-{[2-(3-methoxyazetidin-1-yl)pyridin-4-yl]amino}pyrimidin-4-yl)phenyl]-2-methylpropanamide]

same assay, conditions: Homo sapiens, HEK-293T, 20 h, HEK293T cells, 20 hours; read-out: IC50, in-situ IKKε-mediated phosphorylation of IRF3

IC50 [nM]	Compound
< 100	N#Cc1cc(-c2ccnc(Nc3ccc(C4CC4)nc3)n2)ccc1OC1CCOCC1 [Example Compound 4, 5-{2-[(6-Cyclopropylpyridin-3-yl)amino]pyrimidin-4-yl}-2-(tetrahydro-2H-pyran-4-yloxy)benzonitrile]
100 to 250	N#Cc1cc(-c2ccnc(Nc3ccc(N4CCCC4)nc3)n2)ccc1OC1CCOCC1 [Example Compound 5, 5-(2-{[6-(Pyrrolidin-1-yl)pyridin-3-yl]amino}pyrimidin-4-yl)-2-(tetrahydro-2H-pyran-4-yloxy)benzonitrile]
1000 to 5000	CN(C)c1ccc(-c2ccc(Nc3nccc(-c4ccc(OC5CCOCC5)c(C#N)c4)n3)cn2)cn1 [Example Compound 169, 5-(2-{[6′-(Dimethylamino)-2,3′-bipyridin-5-yl]amino}pyrimidin-4-yl)-2-(tetrahydro-2H-pyran-4-yloxy)benzonitrile]
1000 to 5000	N#Cc1cc(-c2ccnc(Nc3cncc(C(=O)N4CCOCC4)c3)n2)ccc1OC1CCOCC1 [Example Compound 172, 5-(2-{[5-(Morpholin-4-ylcarbonyl)pyridin-3-yl]amino}pyrimidin-4-yl)-2-(tetrahydro-2H-pyran-4-yloxy)benzonitrile]
1000 to 5000	N#Cc1cc(-c2ccnc(Nc3cncc(C(=O)N4CCN(CCO)CC4)c3)n2)ccc1OC1CCOCC1 [Example Compound 174, 5-{2-[(5-{[4-(2-Hydroxyethyl)piperazin-1-yl]carbonyl}pyridin-3-yl)amino]pyrimidin-4-yl}-2-(tetrahydro-2H-pyran-4-yloxy)benzonitrile]
1000 to 5000	N#Cc1cc(-c2ccnc(Nc3ccc(N4CCC(N5CCOCC5)C4)nn3)n2)ccc1OC1CCOCC1 (stereo not drawn) [Example Compound 177, 5-[2-({6-[3-(Morpholin-4-yl)pyrrolidin-1-yl]pyridazin-3-yl}amino)pyrimidin-4-yl]-2-(tetrahydro-2H-pyran-4-yloxy)benzonitrile]
1000 to 5000	COC1CCN(c2cc(Nc3nccc(-c4ccc(OC5CCOCC5)c(C#N)c4)n3)ccn2)C1 (stereo not drawn) [Example Compound 181, 5-(2-{[2-(3-Methoxypyrrolidin-1-yl)pyridin-4-yl]amino}pyrimidin-4-yl)-2-(tetrahydro-2H-pyran-4-yloxy)benzonitrile]
1000 to 5000	N#Cc1cc(-c2ccnc(Nc3cncc(CN4CCN(CCO)CC4)c3)n2)ccc1OC1CCOCC1 [Example Compound 186, 5-{2-[(5-{[4-(2-Hydroxyethyl)piperazin-1-yl]methyl}pyridin-3-yl)amino]pyrimidin-4-yl}-2-(tetrahydro-2H-pyran-4-yloxy)benzonitrile]
100 to 250	CN(C)Cc1cncc(Nc2nccc(-c3ccc(OC4CCOCC4)c(C#N)c3)n2)c1 [Example Compound 201, 5-[2-({5-[(Dimethylamino)methyl]pyridin-3-yl}amino)pyrimidin-4-yl]-2-(tetrahydro-2H-pyran-4-yloxy)benzonitrile]
100 to 250	CNCc1cncc(Nc2nccc(-c3ccc(OC4CCOCC4)c(C#N)c3)n2)c1 [Example Compound 202, 5-[2-({5-[(Methylamino)methyl]pyridin-3-yl}amino)pyrimidin-4-yl]-2-(tetrahydro-2H-pyran-4-yloxy)benzonitrile]
1000 to 5000	N#Cc1cc(-c2ccnc(Nc3ccc(N4CCOCC4)cn3)n2)ccc1OC1CCOCC1 [Example Compound 216, 5-(2-{[5-(Morpholin-4-yl)pyridin-2-yl]amino}pyrimidin-4-yl)-2-(tetrahydro-2H-pyran-4-yloxy)benzonitrile]
1000 to 5000	N#Cc1cc(-c2ccnc(Nc3ccnc(C(=O)N4CCCC4)c3)n2)ccc1OC1CCN(C(=O)CO)CC1 [Example Compound 233, 2-{[1-(Hydroxyacetyl)piperidin-4-yl]oxy}-5-(2-{[2-(pyrrolidin-1-ylcarbonyl)pyridin-4-yl]amino}pyrimidin-4-yl)benzonitrile]
100 to 250	COC1CN(C(C)c2ccc(Nc3nccc(-c4ccc(OC5CCOCC5)c(C#N)c4)n3)cn2)C1 (stereo not drawn) [Example Compound 234, 5-[2-({6-[1-(3-Methoxyazetidin-1-yl)ethyl]pyridin-3-yl}amino)pyrimidin-4-yl]-2-(tetrahydro-2H-pyran-4-yloxy)benzonitrile]
1000 to 5000	Cc1ccc(Nc2nccc(-c3ccc(OC4CCN(C(=O)[C@H](C)O)CC4)c(C#N)c3)n2)c[n+]1[O-] [Example Compound 235, 2-({1-[(2S)-2-Hydroxypropanoyl]piperidin-4-yl}oxy)-5-{2-[(6-methyl-1-oxidopyridin-3-yl)amino]pyrimidin-4-yl}benzonitrile]
1000 to 5000	N#Cc1cc(-c2ccnc(Nc3ccc[n+]([O-])c3)n2)ccc1OC1CCOCC1 [Example Compound 236, 5-{2-[(1-Oxidopyridin-3-yl)amino]pyrimidin-4-yl}-2-(tetrahydro-2H-pyran-4-yloxy)benzonitrile]
1000 to 5000	CC(C)C(=O)Nc1ccc(-c2ccnc(Nc3ccnc(N4CC(O)C4)c3)n2)cc1C#N [Example Compound 246, N-[2-Cyano-4-(2-{[2-(3-hydroxyazetidin-1-yl)pyridin-4-yl]amino}pyrimidin-4-yl)phenyl]-2-methylpropanamide]
1000 to 5000	C[C@H](O)C(=O)N1CCC(Oc2ccc(-c3ccnc(Nc4ccc(N5CC(O)C5)nc4)n3)cc2C#N)CC1 [Example Compound 253, 5-(2-{[6-(3-Hydroxyazetidin-1-yl)pyridin-3-yl]amino}pyrimidin-4-yl)-2-({1-[(2S)-2-hydroxypropanoyl]piperidin-4-yl}oxy)benzonitrile]
